Measured values as given in EP0400785A2, “Ultraviolet curable phenyl and acrylamide group-containing silicone compositions” (DOW CORNING CORPORATION, priority 1989, dated 1990).

Key:
Format in all cases: physicochemical
[1] = Heat aging / thermal stability of cured composition in oven at 150°C (durometer); conditions: in Acrylamide-polymer B; after 20 hours at 150°C in an oven
Description: (§1) Compositions were made from Acrylamide-polymer B and various compounds which might be considered useful as photosensitization systems. These included P-1 = 2 hydroxy-2-methylphenylpropan-1-one (Darocur^TM 1173) P-2 = diethoxyacetophenone P-3 = (1-hydroxycyclohexyl)phenylmethanone (Irgacure^TM 184) P-4 = benzophenone P-5 = a 50/50 weight mixture of P-1 and diisopropylaminoethanol. Each of the photosensitization systems were used in an amount of one weight percent except P-5 which was used in an amount of two weight percent. The weight percentage was based on the weight of Acrylamide-blend B. Each of the compositions were cured for a defined period of time by exposure to ultraviolet radiation on the LCU described in Example 2, set for 3 seconds per pass which measured about 400 mJ/cm² using a Light Bug. The hardness of the cured composition was measured by using equipment manufactured by Instrument MFG Co. on the Shore OO durometer scale using a 0.25 inch thick section of the cured material. The durometer was determined initially, after heat aging for 20 hours at 150°C. in an oven and after 20 hours in an autoclave at 12 1°C. and 15 psi pressure.
(§2) A gel composition was prepared by mixing 98 parts of Acrylamide-blend E, 1 part of (1-hydroxycyclohexyl)phenylmethanone and 1 part of a heat stability additive. Sodium and potassium contents were determined on uncured samples of the gel composition by using flame photometry of acid ashed gel composition after removal of silica by treatment with hydrofluoric acid. The amount of sodium and potassium were each less than 2 ppm. […] The irradiation dose was determined by using an IL 390 Light Bug manufactured by International Light of (Newburyport, Mass.). […] As determined by ASTM-D150, the dielectric constant at 100 Hz was 3.0 and at 100,000 Hz was 3.0. As determined by ASTM-D150, the dissipation factor at 100 Hz was 0.006 and at 100,000 Hz was 0.002. The glass transition temperature was -113°C. and there was no melting transition temperature as determined by differential scanning calorimetry. The thermal stability was determined by placing a sample of the cured gel composition in a forced air oven at 150°C. […] The autoclave stability was determined by placing a sample of cured gel composition in an autoclave at 121°C. with a pressure of 2.1 kg/cm².
(§3) A composition was prepared by blending 67 parts of Acrylamide-polymer D, 25 parts of 1,4 -butanediol diacrylate, 3 parts of 1-hydroxy-2-methyl-1-phenylpropan-1-one, 5 parts of an adhesion additive, 100 ppm of phenothiazine and 100 ppm of the monomethyl ether of hydroquinone. […] The ionic purity was determined and there was less than 2 ppm of sodium and less than 2 ppm potassium. […]

[2] = Autoclave stability of cured composition at 121°C (durometer); conditions: in Acrylamide-polymer B; after 20 hours in an autoclave at 12 1°C and 15 psi
Description: as §1, §2, §3

[3] = Durometer hardness of cured composition (Shore scales); conditions: in Acrylamide-polymer B; 0.25 inch thick section of cured material
Description: as §1, §2, §3

Compound	DUROMETER HEAT AGED [1]	DUROMETER AUTOCLAVE [2]	DUROMETER INITIAL [3]
CC(C)(O)C(=O)c1ccccc1 [P-1, 2 hydroxy-2-methylphenylpropan-1-one]	36 Shore OO	39 Shore OO	45 Shore OO
CCOC(OCC)C(=O)c1ccccc1 [P-2, diethoxyacetophenone]	30 Shore OO	47 Shore OO	42 Shore OO
O=C(c1ccccc1)C1(O)CCCCC1 [P-3, (1-hydroxycyclohexyl)phenylmethanone]	42 Shore OO	40 Shore OO	41 Shore OO
O=C(c1ccccc1)c1ccccc1 [P-4, benzophenone]	43 Shore OO	44 Shore OO	44 Shore OO
